Consider 25 molecules from US8901111B2, “Aryl-substituted heterocyclic urea modulators of fatty acid amide hydrolase” (Janssen Pharmaceutica NV, priority 2009, dated 2014).

One experiment has as its target T1, rat FAAH (Rattus norvegicus, UniProt P97612).
T1 construct: expressed in transfected cells; crude homogenate
T1 sequence (P97612 1-579): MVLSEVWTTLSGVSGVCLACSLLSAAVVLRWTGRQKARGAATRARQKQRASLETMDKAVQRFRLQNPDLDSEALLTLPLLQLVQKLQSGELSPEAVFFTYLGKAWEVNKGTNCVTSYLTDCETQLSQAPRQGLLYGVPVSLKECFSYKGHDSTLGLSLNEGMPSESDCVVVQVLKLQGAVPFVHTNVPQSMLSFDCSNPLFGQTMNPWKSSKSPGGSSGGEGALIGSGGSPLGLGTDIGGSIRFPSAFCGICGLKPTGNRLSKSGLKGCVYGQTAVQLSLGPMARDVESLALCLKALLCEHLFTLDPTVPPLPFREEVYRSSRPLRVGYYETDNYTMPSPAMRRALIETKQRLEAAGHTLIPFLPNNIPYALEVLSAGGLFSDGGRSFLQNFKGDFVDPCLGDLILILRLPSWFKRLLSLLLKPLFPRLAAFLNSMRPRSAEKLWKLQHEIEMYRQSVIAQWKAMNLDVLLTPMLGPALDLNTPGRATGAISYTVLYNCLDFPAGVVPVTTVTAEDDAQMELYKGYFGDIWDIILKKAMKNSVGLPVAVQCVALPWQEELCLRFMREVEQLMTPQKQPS
Nature of the experiment: Assay Method 2: FAAH assay, 3H-anandamide hydrolysis in homogenate of cells transfected with rat FAAH. Format: biochemical. The following applies: cell homogenate, 3H-AEA 80 nM, 1 h at rt, average of results. Put shortly:
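Homogenate of SK-N-MC cells stably transfected with rat FAAH, in pH 9 Tris/EDTA/glycerol/Triton buffer, incubated 1 h at rt with 80 nM final [1-3H-ethanolamine]anandamide. Released 3H-ethanolamine separated from substrate on activated charcoal filters by centrifugation and quantified by scintillation counting.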

In the next experiment the target is T2, FAAH (Homo sapiens, UniProt O00519).
T2 sequence (O00519 1-579): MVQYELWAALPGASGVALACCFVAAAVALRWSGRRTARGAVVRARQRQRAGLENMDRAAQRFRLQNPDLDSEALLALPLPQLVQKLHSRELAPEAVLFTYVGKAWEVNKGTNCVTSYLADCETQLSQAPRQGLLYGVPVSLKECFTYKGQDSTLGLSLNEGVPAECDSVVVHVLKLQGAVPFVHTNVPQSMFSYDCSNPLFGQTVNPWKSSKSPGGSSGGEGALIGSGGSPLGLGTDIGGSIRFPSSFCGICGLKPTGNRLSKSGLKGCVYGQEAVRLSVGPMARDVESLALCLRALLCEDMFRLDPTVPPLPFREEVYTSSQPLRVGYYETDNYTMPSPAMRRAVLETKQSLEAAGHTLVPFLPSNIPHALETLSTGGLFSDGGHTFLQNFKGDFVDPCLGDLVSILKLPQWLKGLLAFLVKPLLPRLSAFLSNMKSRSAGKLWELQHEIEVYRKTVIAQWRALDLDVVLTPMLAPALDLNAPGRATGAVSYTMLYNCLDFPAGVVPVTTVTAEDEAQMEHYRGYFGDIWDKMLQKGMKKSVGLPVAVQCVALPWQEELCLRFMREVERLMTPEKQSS
Nature of the experiment: Assay Method 1: FAAH assay, 3H-anandamide hydrolysis in homogenate of cells transfected with human FAAH. The experiment is classed as biochemical. The arrangement: expressed in transfected cells; crude homogenate (T84 cell pellets named as alternative). As to conditions: cell homogenate, 3H-AEA 80 nM, 1 h at rt, average of results. The procedure, abridged: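 Homogenates of SK-N-MC cells stably transfected with human FAAH (or T84 cells) in pH 9 Tris/EDTA/glycerol/Triton buffer, incubated with compound and 80 nM final ^3H-anandamide for 1 h at rt. Released ^3H-ethanolamine separated through activated charcoal by centrifugation and counted by scintillation.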

Where a name gives a salt, the structure may show the parent alone.

As for `O=C(Nc1cnccc1Cl)N1CCC(COc2ccc(Cl)c(Cl)c2)C1` (centres unmarked) [Example 49, N-(4-Chloropyridin-3-yl)-3-[(3,4-dichlorophenoxy)methyl]pyrrolidine-1-carboxamide], the half-inhibitory concentration (IC50) on rat FAAH amounted to 33 nM; on FAAH, 9 nM.
`CS(=O)(=O)c1ccc(Oc2cccc(OCC3CCN(C(=O)Nc4cnccc4Cl)C3)c2)cc1` (centres unmarked) [Example 50, N-(4-Chloropyridin-3-yl)-3-({3-[4-(methylsulfonyl)phenoxy]phenoxy}methyl)pyrrolidine-1-carboxamide]: the IC50 against rat FAAH was found to be 97 nM; at FAAH, 9 nM.
Turning to `O=C(Nc1cccnc1)N1CCC(COc2cccc(Oc3ccc(Cl)cc3)c2)C1` (centres unmarked) [Example 51, 3-{[3-(4-Chlorophenoxy)phenoxy]methyl}-N-pyridin-3-ylpyrrolidine-1-carboxamide], the half-maximal inhibitory concentration (IC50) turned out to be 62 nM against rat FAAH and 200 nM at FAAH.
As for `CS(=O)(=O)c1ccc(Oc2cccc(OCC3CCN(C(=O)Nc4cccnc4)C3)c2)cc1` (centres unmarked) [Example 52, 3-({3-[4-(Methylsulfonyl)phenoxy]phenoxy}methyl)-N-pyridin-3-ylpyrrolidine-1-carboxamide], the half-inhibitory concentration (IC50) is 1000 nM on rat FAAH and 100 nM against FAAH.
Consider `O=C(Nc1cccnc1)N1CCC(CCOc2ccccc2)C1` (centres unmarked) [Example 54, 3-(2-Phenoxy-ethyl)-pyrrolidine-1-carboxylic acid pyridin-3-ylamide], for which the half-inhibitory concentration (IC50) against rat FAAH and at FAAH was above 10000 nM throughout.
With `O=C(Nc1cnccc1Cl)N1CC[C@H](COc2cccc(Oc3ccc(Cl)cc3)c2)C1` [Example 55, (3S)-3-[3-(4-Chloro-phenoxy)-phenoxymethyl]-pyrrolidine-1-carboxylic acid (4-chloro-pyridin-3-yl)-amide], the half-inhibitory concentration (IC50) is 6 nM against rat FAAH and 16 nM against FAAH.
On to `O=C(Nc1cnccc1Cl)N1CC[C@@H](COc2cccc(Oc3ccc(Cl)cc3)c2)C1` [Example 56, (3R)-3-[3-(4-Chloro-phenoxy)-phenoxymethyl]-pyrrolidine-1-carboxylic acid (4-chloro-pyridin-3-yl)-amide], for which the half-inhibitory concentration (IC50) came to 2 nM against rat FAAH and 4 nM on FAAH.
On to `O=C(Nc1cnccc1Cl)N1CCC(CCOc2ccccc2)C1` (centres unmarked) [Example 57, 3-(2-Phenoxy-ethyl)-pyrrolidine-1-carboxylic acid (4-chloropyridin-3-yl)-amide], for which the IC50 on rat FAAH was above 10000 nM; against FAAH, 3000 nM.
For the molecule `O=C(Nc1cnccc1Cl)N1CCC(CCOc2ccc(Cl)c(Cl)c2)C1` (centres unmarked) [Example 58, 3-[2-(3,4-Dichloro-phenoxy)-ethyl]-pyrrolidine-1-carboxylic acid (4-chloro-pyridin-3-yl)-amide], the 50% inhibitory concentration (IC50) turned out to be 700 nM on rat FAAH and 300 nM against FAAH.
As for `O=C(Nc1cccnc1)N1CCC(CCOc2cccc(OC(F)(F)F)c2)C1` (centres unmarked) [Example 59, 3-[2-(3-Trifluoromethoxy-phenoxy)-ethyl]-pyrrolidine-1-carboxylic acid pyridin-3-ylamide], the IC50 at rat FAAH and on FAAH was above 10000 nM throughout.
Turning to `O=C(Nc1cccnc1)N1CCC(CCOc2ccc(OC(F)(F)F)cc2)C1` (centres unmarked) [Example 60, 3-[2-(4-Trifluoromethoxy-phenoxy)-ethyl]-pyrrolidine-1-carboxylic acid pyridin-3-ylamide], the IC50 against rat FAAH and against FAAH was above 10000 nM throughout.
On to `O=C(Nc1cnccc1Cl)N1CCC(CCOc2cccc(OC(F)(F)F)c2)C1` (centres unmarked) [Example 61, 3-[2-(3-Trifluoromethoxy-phenoxy)-ethyl]-pyrrolidine-1-carboxylic acid (4-chloro-pyridin-3-yl)-amide], for which the concentration for half-maximal inhibition (IC50) against rat FAAH and against FAAH was 1600 nM each time.
With `O=C(Nc1cccnc1)N1CCC(CCOc2cccc(Oc3ccc(Cl)cc3)c2)C1` (centres unmarked) [Example 63, 3-{2-[3-(4-Chloro-phenoxy)-phenoxy]-ethyl}-pyrrolidine-1-carboxylic acid pyridin-3-ylamide], the values for the IC50 against rat FAAH and on FAAH were 630 nM and 600 nM, respectively.
Regarding `O=C(Nc1cnccc1Cl)N1CCC(CCOc2cccc(Oc3ccc(Cl)cc3)c2)C1` (centres unmarked) [Example 64, 3-{2-[3-(4-Chloro-phenoxy)-phenoxy]-ethyl}-pyrrolidine-1-carboxylic acid (4-chloro-pyridin-3-yl)-amide], the 50% inhibitory concentration (IC50) against rat FAAH worked out at 73 nM; at FAAH it was 63 nM.
Turning to `O=C(Nc1cnccc1Cl)N1CC(CCOCc2ccc(Cl)cc2)C1` [Example 65, 3-[2-(4-Chloro-benzyloxy)-ethyl]-azetidine-1-carboxylic acid (4-chloro-pyridin-3-yl)-amide], the IC50 came out at 739 nM at rat FAAH and 275 nM against FAAH.
For the molecule `O=C(Nc1cnccc1Cl)N1CC(CCOCc2ccc(Cl)c(Cl)c2)C1` [Example 67, 3-[2-(3,4-Dichloro-benzyloxy)-ethyl]-azetidine-1-carboxylic acid (4-chloro-pyridin-3-yl)-amide], the IC50 against rat FAAH came to 84 nM; against FAAH, 39 nM.
For `O=C(Nc1cccnc1)N1CC(CCOCc2ccc(Cl)c(Cl)c2)C1` [Example 68, 3-[2-(3,4-Dichloro-benzyloxy)-ethyl]-azetidine-1-carboxylic acid pyridin-3-ylamide, trifluoroacetate salt], in that order: 1230 nM and 849 nM.
For `O=C(Nc1cccnc1)N1CCC(Cc2ccc3c(c2)OC(F)(F)O3)C1` (centres unmarked) [Example 71, 3-(2,2-Difluoro-benzo[1,3]dioxol-5-ylmethyl)-pyrrolidine-1-carboxylic acid pyridin-3-ylamide], in that order: above 10000 nM and above 10000 nM.
Take `O=C(Nc1noc2ccccc12)N1CCC(Cc2ccc3c(c2)OC(F)(F)O3)C1` (centres unmarked) [Example 72, 3-(2,2-Difluoro-benzo[1,3]dioxol-5-ylmethyl)-pyrrolidine-1-carboxylic acid benzo[d]isoxazol-3-ylamide]: the IC50 at rat FAAH was 770 nM; against FAAH, above 10000 nM.
On to `O=C(Nc1cccnc1)N1CCC(Cc2cccc(Oc3ccc(F)cc3)c2)C1` (centres unmarked) [Example 74, 3-[3-(4-Fluoro-phenoxy)-benzyl]-pyrrolidine-1-carboxylic acid pyridin-3-ylamide], for which the IC50 against rat FAAH is 1100 nM; at FAAH, 1200 nM.
With `O=C(Nc1cnccc1Cl)N1CCC(Cc2cccc(Oc3ccc(F)cc3)c2)C1` (centres unmarked) [Example 75, 3-[3-(4-Fluoro-phenoxy)-benzyl]-pyrrolidine-1-carboxylic acid (4-chloro-pyridin-3-yl)-amide], the IC50 on rat FAAH was 30 nM; against FAAH, 45 nM.
Regarding `O=C(Nc1cccc2nccn12)N1CCC(Cc2cccc(Oc3ccc(F)cc3)c2)C1` (centres unmarked) [Example 76, 3-[3-(4-Fluoro-phenoxy)-benzyl]-pyrrolidine-1-carboxylic acid imidazo[1,2-a]pyridin-5-ylamide], the IC50 against rat FAAH was 70 nM; on FAAH it was 400 nM.
With `O=C(Nc1cccnc1)N1CCC(CCc2ccc3c(c2)OC(F)(F)O3)C1` (centres unmarked) [Example 77, 3-[2-(2,2-Difluoro-benzo[1,3]dioxol-5-yl)-ethyl]-pyrrolidine-1-carboxylic acid pyridin-3-ylamide], the results for the IC50 on rat FAAH and against FAAH were 7000 nM and 5000 nM, respectively.
For `O=C(Nc1cnccc1Cl)N1CCC(CCc2ccc3c(c2)OC(F)(F)O3)C1` (centres unmarked) [Example 78, 3-[2-(2,2-Difluoro-benzo[1,3]dioxol-5-yl)-ethyl]-pyrrolidine-1-carboxylic acid (4-chloro-pyridin-3-yl)-amide], the IC50 against rat FAAH amounted to 320 nM; against FAAH, 230 nM.
As for `O=C(Nc1cccnc1)N1CCC(CCc2cccc(Oc3ccc(F)cc3)c2)C1` (centres unmarked) [Example 79, 3-{2-[3-(4-Fluoro-phenoxy)-phenyl]-ethyl}-pyrrolidine-1-carboxylic acid pyridin-3-ylamide], the IC50 on rat FAAH stood at 48 nM; at FAAH, 58 nM.
